Laboratory results published in publication PMC8208304 (2021).
Each block holds one compound with its values, some of them ahead of it.

Experiments:
[1] = system: S1 + S2 (split ATP aptamer / split G-quadruplex receptor) (DNA, aptamer, internal C12 spacer (iSpC12) after position 12 of strand 1 and after position 16 of strand 2) TGGGTGGGTTTTTTTACCTGGGGGAGTAT/TGCGGAGGAAGGTTTTTTTAGGGCGGGT; experiment: SYBR Green I fluorescence melting; settings: derived from two Tm (46.2 to 55.0 °C); 1.0 mM ATP; 1.0 μM strands; 100 mM Tris-HCl pH 7.4
[2] = system: FAM-S1 + TAMRA-S2 (DNA, aptamer, internal C12 spacer (iSpC12) after position 11 of strand 1 and after position 16 of strand 2) TGGGTGGGTTTTTTACCTGGGGGAGTAT/TGCGGAGGAAGGTTTTTTTAGGGCGGGT; experiment: FRET in LUVs; settings: ATP 0-1.0 mM; FAM-S1:TAMRA-S2 1:5; Fa/Fd 0.4 to 0.5
[3] = system: S1 + S2 (split ATP aptamer / split G-quadruplex receptor) (DNA, aptamer, internal C12 spacer (iSpC12) after position 12 of strand 1 and after position 16 of strand 2) TGGGTGGGTTTTTTTACCTGGGGGAGTAT/TGCGGAGGAAGGTTTTTTTAGGGCGGGT; experiment: ThT fluorescence enhancement at 504 nm; settings: 2.2-fold with 1.0 mM ATP; ThT 20 μM; 1.0 μM strands; 100 mM Tris-HCl pH 7.4
[4] = system: S1 + S2 (split ATP aptamer / split G-quadruplex receptor) (DNA, aptamer, internal C12 spacer (iSpC12) after position 12 of strand 1 and after position 16 of strand 2) TGGGTGGGTTTTTTTACCTGGGGGAGTAT/TGCGGAGGAAGGTTTTTTTAGGGCGGGT; experiment: G4-hemin Amplex Red peroxidase fluorescence in LUVs; settings: 100 mM Tris-HCl pH 7.0; functional readout; used instead of ATP; concentration not given
[5] = system: S1 + S2 (split ATP aptamer / split G-quadruplex receptor) (DNA, aptamer, internal C12 spacer (iSpC12) after position 12 of strand 1 and after position 16 of strand 2) TGGGTGGGTTTTTTTACCTGGGGGAGTAT/TGCGGAGGAAGGTTTTTTTAGGGCGGGT; experiment: G4-hemin peroxidase activity (Amplex Red) in LUVs; settings: ATP 0-1.0 mM; hemin 4 μM; 100 mM Tris-HCl pH 7.0; functional readout

ΔTm (melting temperature shift) [1]: 8.8 °C | binding [2]: yes
SMILES: Nc1ncnc2c1ncn2[C@@H]1O[C@H](COP(=O)(O)OP(=O)(O)OP(=O)(O)O)[C@@H](O)[C@H]1O

binding [3]: yes
SMILES: Cc1ccc2c(c1)sc(-c1ccc(N(C)C)cc1)[n+]2C

binding [4]: no
SMILES: Nc1ccn([C@@H]2O[C@H](CO)[C@@H](O)[C@H]2O)c(=O)n1

binding [5]: yes
SMILES: C=CC1=C(C)C2=Cc3c(C=C)c(C)c4[n]3[Fe]([Cl])[n]3c(c(C)c(CCC(=O)O)c3=CC3=NC(=C4)C(C)=C3CCC(=O)O)=CC1=N2

binding [4]: no
SMILES: Nc1nc2c(ncn2[C@@H]2O[C@H](CO)[C@@H](O)[C@H]2O)c(=O)[nH]1

binding [4]: no
SMILES: O=c1ccn([C@@H]2O[C@H](CO)[C@@H](O)[C@H]2O)c(=O)[nH]1
